One may read the EC50 as the concentration giving half of the maximal effect.

These results are taken from patent publication US9617264B2, “2,7-diazaspiro[3.5]nonane compounds” (REMYND NV, priority 2014, dated 2017).

One experiment has as its system INS-1E cells. Put plainly: Cytokine-induced apoptosis (caspase-3/7 activation, Caspase-Glo 3/7) in INS-1E rat insulinoma cells. The class given is cell-based. To be noted: cytokine mix (IFN-γ, IL-1, TNF-α), 24 hours, caspase 3/7 activity, read-out: CYT EC50. From the text: The INS-1E cell line, a rat insulinoma cell line, has been characterized extensively. INS-1E cells respond to glucose by secreting insulin and, unlike most other immortalized n-cell lines, they do this in a consistent manner over time. The cells are sensitive to hyperglycemia-, free fatty acid (FFA)-, and cytokine-induced stress. Prolonged stress ultimately leads to induction of apoptotic pathways and, if stress is not counter-acted, to apoptosis. Caspase-3 and -7 play a central role downstream where various apoptotic pathways merge. As such, activation (i.e. cleavage) of these caspases forms a relevant primary read-out to evaluate protective activity of compounds against stress-induced apoptosis.
To evaluate the efficacy of different compounds to prevent induction of apoptosis, an in vitro screen was developed in which INS-1E cells were exposed to a cytokine mix (IFN-γ, 5 ng/ml; IL-1, 20 pg/ml; TNF-α, 0.25 ng/ml). The degree of induction of apoptosis was evaluated using a substrate for cleaved caspase-3 and -7, i.e. a proluminescent caspase-3/7 DEVD aminoluciferin substrate with a thermostable luciferase (Caspase-Glo® 3/7 assay; Promega, cat. G8092).
On day 0, INS-1E cells were plated in a white-walled 96-well microplate (Greiner, cat. 655098) at 20,000 cells per well in 100 μl complete medium (RPMI containing 11 mM glucose supplemented with 5% FCS, 100 IU/ml penicillin, 100 μg/ml streptomycin, 10 mM HEPES, 1 mM Sodium Pyruvate and 50 μM 2-Mercapto-ethanol). On day 2, 100 μl medium containing cytokines and compound dissolved in DMSO was added to the cells. Wells without cytokines containing DMSO and wells with cytokines and DMSO were included to evaluate the degree of caspase 3/7 activation by the cytokine mix. After 24 hours exposure to cytokines and/or compound, Caspase-Glo® 3/7 reagent was added to the cells and caspase activity was determined by measuring luminescence.
To evaluate compound efficacy, the “toxicity window” was calculated by subtracting caspase activity of wells without stressor from activity of wells with stressor but without compound. The amount of caspase activity in the latter wells was normalized to 1 and used as reference. Subsequently, caspase activity in the wells with stressor and varying concentrations of compound was calculated relative to the wells without compound. Plotting caspase activity vs the log 10 of the concentration of compound permitted calculation of the EC50 values for the compounds which typically lied between 0.0001 and 10 μM. Compounds with an EC50<10 μM were considered active.

The next experiment has as its system M17_3SYN cells. Put plainly: Paraquat-induced cytotoxicity (LDH) in α-synuclein over-expressing M17_3SYN neuroblastoma cells. The class given is cell-based. The following applies: Homo sapiens, Neuroblastoma cell, 48 h, 6 mM Paraquat, 2 days, LDH toxicity inhibition, read-out: SYN EC50. From the text:
A α-synuclein expression plasmid was constructed by subcloning the NcoI/XhoI fragment from 212T-SYN(WT) (Griffioen et al., Biochem Biophys Acta (2006) 1762(3):312-318) containing the cDNA of human wild type α-synuclein correspondingly into a standard mammalian expression vector pcDNA3.1 resulting in plasmid pcDNA3.1-SYNwt. Plasmids pcDNA3.1 and pcDNA3.1-SYNwt were transfected into human neuroblastoma cells (BE-M17; ATCC No. CRL-2267™) using lipofectamine reagent and subsequently, independent clonal cell lines with the plasmids stably integrated into the genome were selected by antibiotic resistance selection (Geneticin (G418)), resulting in cell lines M17.pcDNA3 and M17_3SYN. Overexpression of α-synuclein in the M17_3SYN cell line was confirmed by Western blot analysis.
Due to the high levels of α-synuclein, M17_3SYN cells were sensitive to paraquat, a well-known risk factor Parkinson's disease and of synuclein-dependent neuronal degeneration. Cytotoxicity of cells was measured by quantification of lactate dehydrogenase (LDH) levels. In dead cells, LDH leaked out of the cells into the medium due to a loss of plasma-membrane integrity.
Three days preceding the experiment, primary pre-cultures of M17.pcDNA3 (as possible control) and M17_3SYN cells were prepared, starting from a stock culture, at a density of 20.000-40.000 cells/cm2 in culture medium (Opti-MEM® Reduced Serum Medium with Phenol Red (Invitrogen, Cat. 31985-047) supplemented with 10% FCS, 1 mM sodium pyruvate, 1×NEAA, 500 μg/ml G418 and 0.5× antibiotic/antimycotic (ABAM)). 3 days later these primary pre-cultures were used as a starting point to make secondary pre-cultures at a density of 50.000-100.000 cells/cm^2. At the day of the experiment these secondary precultures were diluted to ˜0.5·10^6 cells/ml in detection medium (Opti-MEM® Reduced-Serum Medium without Phenol Red (Invitrogen, Cat. 11085-021) supplemented with 10% FCS, 1 mM sodium pyruvate, 1×NEAA, 500 μg/ml G418 and 0.5×ABAM) and 60 μL of this suspension was dispensed per well into a 96-well microtiter plate. After 3 hours of incubation at 37° C./5% CO2 an equal volume of detection medium containing a final concentration of 6 mM Paraquat was added and subsequently incubated for 2 days at 37° C./5% CO2. Then LDH activity was determined using the Promega Cytotox 96 Non-Radioactive cytotoxicity assay (Promega, Cat. G1780), according to the manufacturer's instructions. Cytotoxicity was defined as the ratio of LDH relative to the total LDH in the cells and supernatant.
The assay described above using the M17_3SYN cell line allowed screening compounds for their ability to decrease cytotoxicity in PQ-challenged cells. Compounds of the invention were tested for their ability to decrease toxicity at different concentrations, ranging from low non-effective concentrations to high effective concentrations. Afterwards, a dose-dependent inhibition curve was used to calculate the EC50. A compound was considered to be active in this test when it inhibited toxicity by more than 20% relative to untreated M17_3SYN cells at a concentration of […] or lower.

In the case of `CS(=O)(=O)c1cccc(S(=O)(=O)N2CCC3(CC2)CN(c2nc(Cc4ccc(F)cc4)ns2)C3)c1` [Cmpd082, 3-(4-Fluorobenzyl)-5-(7-((3-(methylsulfonyl)phenyl)sulfonyl)-2,7-diazaspiro[3.5]nonan-2-yl)-1,2,4-thiadiazole], the figures for the EC50 with INS-1E cells and in the experiment with M17_3SYN cells were 34 nM and 477 nM, respectively.

Take `CCOc1ccc(S(=O)(=O)N2CC3(CCN(S(=O)(=O)c4ccc(OC(F)F)cc4)CC3)C2)cc1` [Cmpd042, 7-((4-(Difluoromethoxy)phenyl)sulfonyl)-2-((4-ethoxyphenyl)sulfonyl)-2,7-diazaspiro[3.5]nonane]: in the experiment on INS-1E cells, the half-maximal effective concentration (EC50) came to 41 nM.

Regarding `COc1ccc(S(=O)(=O)N2CCC3(CC2)CN(C(=O)C(C)(C)c2ccc(Cl)cc2)C3)cc1` [Cmpd027, 2-(4-Chlorophenyl)-1-(7-((4-methoxyphenyl)sulfonyl)-2,7-diazaspiro[3.5]nonan-2-yl)-2-methylpropan-1-one], the EC50 in the experiment with INS-1E cells turned out to be 181 nM; with M17_3SYN cells it was 14.8 nM.

Take `COc1ccc(S(=O)(=O)N2CC3(CCN(S(=O)(=O)c4ccc(Cl)cc4)CC3)C2)cc1` [Cmpd047, 7-((4-Chlorophenyl)sulfonyl)-2-((4-methoxyphenyl)sulfonyl)-2,7-diazaspiro[3.5]nonane]: the EC50 in the experiment on INS-1E cells is 14 nM.

With `COc1ccc(S(=O)(=O)N2CCC3(CC2)CN(C(=O)Cc2ccc(F)cc2)C3)cc1` [Cmpd006, 2-(4-Fluorophenyl)-1-(7-((4-methoxyphenyl)sulfonyl)-2,7-diazaspiro[3.5]nonan-2-yl)ethanone], in the experiment on INS-1E cells, the EC50 was determined as 178 nM.

Turning to `COc1ccc(S(=O)(=O)N2CCC3(CC2)CN(C(=O)C(C)(C)c2ccccc2C)C3)cc1` [Cmpd020, 1-(7-((4-Methoxyphenyl)sulfonyl)-2,7-diazaspiro[3.5]nonan-2-yl)-2-methyl-2-(o-tolyl)propan-1-one], the EC50 in the experiment with INS-1E cells stood at 43 nM; in the experiment with M17_3SYN cells, 14.3 nM.

`O=S(=O)(c1ccc(OC(F)F)cc1)N1CCC2(CC1)CN(S(=O)(=O)c1ccc(Cl)cc1)C2` [Cmpd043, 2-((4-Chlorophenyl)sulfonyl)-7-((4-(difluoromethoxy)phenyl)sulfonyl)-2,7-diazaspiro[3.5]nonane]: the half-maximal effective concentration (EC50) with INS-1E cells was 86 nM.

On to `O=S(=O)(c1ccc(Cl)cc1)N1CCC2(CC1)CN(S(=O)(=O)c1ccc(OC(F)F)cc1)C2` [Cmpd050, 7-((4-Chlorophenyl)sulfonyl)-2-((4-(difluoromethoxy)phenyl)sulfonyl)-2,7-diazaspiro[3.5]nonane], for which the EC50 in the experiment on INS-1E cells was determined as 103 nM.

For the compound `CCOc1ccc(S(=O)(=O)N2CCC3(CC2)CN(S(=O)(=O)c2ccc(OC(F)F)cc2)C3)cc1` [Cmpd049, 2-((4-(Difluoromethoxy)phenyl)sulfonyl)-7-((4-ethoxyphenyl)sulfonyl)-2,7-diazaspiro[3.5]nonane], the EC50 in the experiment with INS-1E cells was 90 nM.

Regarding `COc1ccc(S(=O)(=O)N2CCC3(CC2)CN(C(=O)C(C)c2ccccc2OC)C3)cc1` (stereo not shown) [Cmpd023, 2-(2-Methoxyphenyl)-1-(7-((4-methoxyphenyl)sulfonyl)-2,7-diazaspiro[3.5]nonan-2-yl)propan-1-one], the EC50 in the experiment with INS-1E cells amounted to 19 nM; in the experiment with M17_3SYN cells, 39 nM.

Take `COc1ccc(S(=O)(=O)N2CCC3(CC2)CN(C(=O)C(C)c2ccc(Cl)cc2)C3)cc1` (stereo not shown) [Cmpd026, 2-(4-Chlorophenyl)-1-(7-((4-methoxyphenyl)sulfonyl)-2,7-diazaspiro[3.5]nonan-2-yl)propan-1-one]: the results for the EC50 with INS-1E cells and with M17_3SYN cells were 88 nM and 131 nM, respectively.

On to `O=S(=O)(c1ccc(OC(F)F)cc1)N1CCC2(CC1)CN(S(=O)(=O)c1ccc(OC(F)F)cc1)C2` [Cmpd048, 2,7-Bis((4-(difluoromethoxy)phenyl)sulfonyl)-2,7-diazaspiro[3.5]nonane], for which the EC50 in the experiment on INS-1E cells is 61 nM.

For `O=S(=O)(c1cccs1)N1CCC2(CC1)CN(c1nc(Cc3ccc(F)cc3)ns1)C2` [Cmpd092, 3-(4-Fluorobenzyl)-5-(7-(thiophen-2-ylsulfonyl)-2,7-diazaspiro[3.5]nonan-2-yl)-1,2,4-thiadiazole], the EC50 with INS-1E cells was 18 nM; in the experiment on M17_3SYN cells, 615 nM.

Take `COc1ccc(S(=O)(=O)N2CCC3(CC2)CN(C(=O)C2(c4ccccc4)CCCC2)C3)cc1` [Cmpd028, (7-((4-Methoxyphenyl)sulfonyl)-2,7-diazaspiro[3.5]nonan-2-yl)(1-phenylcyclopentyl)methanone]: the values for the EC50 in the experiment with INS-1E cells and with M17_3SYN cells were 29 nM and 22 nM, respectively.

Consider `COc1ccc(S(=O)(=O)N2CCC3(CC2)CN(S(=O)(=O)c2ccc(OC(F)F)cc2)C3)cc1` [Cmpd003, 2-((4-(Difluoromethoxy)phenyl)sulfonyl)-7-((4-methoxyphenyl)sulfonyl)-2,7-diazaspiro[3.5]nonane], for which the 50% effective concentration (EC50) in the experiment on INS-1E cells is 40 nM.

For `COc1ccc(S(=O)(=O)N2CCC3(CC2)CN(c2nc(-c4cnccn4)ns2)C3)cc1` [Cmpd038, 5-(7-((4-Methoxyphenyl)sulfonyl)-2,7-diazaspiro[3.5]nonan-2-yl)-3-(pyrazin-2-yl)-1,2,4-thiadiazole], the EC50 with INS-1E cells worked out at 317 nM.

For the compound `O=S(=O)(c1ccc(OC(F)F)cc1)N1CCC2(CC1)CN(S(=O)(=O)c1ccc(F)cc1)C2` [Cmpd044, 7-((4-(Difluoromethoxy)phenyl)sulfonyl)-2-((4-fluorophenyl)sulfonyl)-2,7-diazaspiro[3.5]nonane], the EC50 with INS-1E cells was found to be 188 nM.

On to `COc1ccc(S(=O)(=O)N2CCC3(CC2)CN(c2nc(-c4ccc(Cl)cc4)ns2)C3)cc1` [Cmpd039, 3-(4-Chlorophenyl)-5-(7-((4-methoxyphenyl)sulfonyl)-2,7-diazaspiro[3.5]nonan-2-yl)-1,2,4-thiadiazole], for which the EC50 in the experiment on INS-1E cells amounted to 100 nM.

Turning to `O=S(=O)(c1ccc(F)cc1)N1CCC2(CC1)CN(S(=O)(=O)c1ccc(OC(F)F)cc1)C2` [Cmpd051, 2-((4-(Difluoromethoxy)phenyl)sulfonyl)-7-((4-fluorophenyl)sulfonyl)-2,7-diazaspiro[3.5]nonane], in the experiment on INS-1E cells, the EC50 turned out to be 33 nM.

On to `COc1ccc(S(=O)(=O)N2CCC3(CC2)CN(C(=O)C2CCOc4ccccc42)C3)cc1` (stereo not shown) [Cmpd021, Chroman-4-yl(7-((4-methoxyphenyl)sulfonyl)-2,7-diazaspiro[3.5]nonan-2-yl)methanone], for which the EC50 in the experiment with INS-1E cells was 503 nM.

As to `COc1ccc(S(=O)(=O)N2CCC3(CC2)CN(C(=O)Cc2ccccc2)C3)cc1` [Cmpd010, 1-(7-((4-Methoxyphenyl)sulfonyl)-2,7-diazaspiro[3.5]nonan-2-yl)-2-phenylethanone], the EC50 with INS-1E cells came out at 178 nM.
